Experimental data from PMC8231113, “Protein Secondary Structure Affects Glycan Clustering in Native Mass Spectrometry” (Life, 2021).

Tests used:
GII.4 Saga P dimer = GII.4 Saga P dimer (Norovirus GII.4 (human norovirus), UniProt B5BTR7); experiment: Native MS, specific glycan binding to P dimer after reference protein correction; design: species or system human norovirus (hNoV)
Experimental: (§1) Prior to MS analysis, purified P dimers were buffer exchanged to 150 mM ammonium acetate (Sigma-Aldrich, reagent grade ≥98%) at pH 7 via centrifugal filter units at 12,000× g at 4 °C (Vivaspin 500, MWCO 10000, Sartorius). Glycans for native MS analysis were mixed with 1 µM (per monomer) purified GII.4 Saga P dimer and 3 µM of the reference proteins at indicated concentrations. Native mass spectra were measured at room temperature in positive ion mode on a high mass modified LCT Premier mass spectrometer (Waters/Micromass, UK and MS Vision, the Netherlands) with a nano-ESI source. In house-made gold-coated electrospray capillaries were used for direct-sample infusion without any accessory chromatographic separation. The voltages and pressures were optimized for non-covalent protein complexes. The gas pressure used in the source hexapole was set between 6.5 and 6.8 × 10^−2 mbar argon optimized for minimal complex dissociation and the backing pressure of the source roughing pump was set between 7.0 and 8.5 mbar. Spectra were recorded with applied voltages for the capillary and cone of 1.20 kV and 240 V, respectively. Note that charge state distributions for P dimers were sometimes slightly shifted as was the degree of glycan clustering per charge state. These changes were highly variable and not quantifiable.
(§2) For calibration of the raw data, a 25 mg/mL cesium iodide spectrum from the same day was used. MassLynx V4.1 (Waters, Manchester, UK) was used to assign peak series to protein species and to determine the mass after minimal smoothing. Furthermore, OriginPro 2016 SR2 (OriginLab, Northampton, MA, USA) was used for spectral deconvolution and curve fitting. Correction for nonspecific protein-ligand clustering was performed as described. Corrected peak areas were averaged and normalized to the free-protein signal. Data were based on at least three independent measurements. Python code Panda and Numpy package were used to calculate the specific binding of P dimers according to the glycan clustering ratio obtained from the selected reference protein candidates. Seaborn and matplotlib.pyplot package were imported into a python script to plot the results. The module of sklearn.linear model was applied for linear regression. The matplotlib and heatmap package were used to plot the heatmap.
Data from native ESI MS measurements were translated into dissociation constants (KD values). The detailed calculations were based on the equations listed below. A protein (P) and a glycan ligand (L) form a complex through non-covalent interactions leading to a reversible association described by (Equation (1)):(1) P+L⇌PL when equilibrium is reached, the KD can be calculated directly from the concentrations via the law of mass action (Equation (2)):(2) KD=[Pfree][Lfree]/[PL]
(§3) Theoretically, the KD is calculated by measuring the concentration of the three components (Pfree, Lfree, PL) in solution. Usually, these values are only indirectly accessible because they require ligand titration up to binding saturation. However, native MS allows for the directly measurement of Pfree and PL, from which Lfree can be calculated using the input concentrations. In the present work, the non-covalent interaction was measured in the gas phase assuming identical ESI and detection efficiency for free and glycan-associated proteins, both for the analyte and the reference protein. […] For P dimers, the equations reflect glycan binding to the individual monomers assuming that binding sites on each monomer are equal and independent.
Using R described in Equation (3), the KD calculation can be re-written into Equation (4) with the known initial concentration of glycan ligand [L0] and protein [P0], adapted from Sun et al.:(3) R=PLequil∕Pequil=∑nA(PL^n+)∕n∕∑nA(P^n+)∕n (4) KD =L0−RP0/1+R/R […]

[1] = biological target: T1, myoglobin from equine heart (Myo) (Equus caballus, UniProt P68082); experiment: Native MS glycan clustering to reference protein Myo; format: binding; details: on Myo
T1 construct: myoglobin from equine heart (Myo, CAS number 100684-32-0); purchased Sigma-Aldrich (Merck, Germany); host or cells: equine heart
Experimental: as §1, §2, §3
(§4) Using R described in Equation (3), the KD calculation can be re-written into Equation (4) with the known initial concentration of glycan ligand [L0] and protein [P0], adapted from Sun et al.:(3) R=PLequil∕Pequil=∑nA(PL^n+)∕n∕∑nA(P^n+)∕n (4) KD =L0−RP0/1+R/R
(§5) For the carbohydrate-binding experiments, it was essential to keep the initial protein concentrations and pH value constant during the analysis of the protein-carbohydrate solutions. While acidification occurs in any ESI droplet, the remaining solution in the capillary changes pH over time. Therefore, accumulated spectra were obtained within 10 min after the voltages were applied to minimize the influence of pH changes during the measurements. […]

[2] = biological target: T2, carbonic anhydrase isozyme II from bovine erythrocytes (CA) (Bos taurus, UniProt P00921); experiment: Native MS glycan clustering to reference protein CA; format: binding; details: on CA
T2 construct: carbonic anhydrase isozyme II from bovine erythrocytes (CA, CAS number 9001-03-0); purchased Sigma-Aldrich (Merck, Germany); host or cells: bovine erythrocytes
Experimental: as §1, §2, §3, §4, §5

[3] = biological target: T3, human apo-transferrin (apo-TFF) (Homo sapiens, UniProt P02787); experiment: Native MS glycan clustering to reference protein apo-TFF; format: binding; details: on apo-TFF
T3 construct: purchased Sigma-Aldrich (Merck, Germany)
Experimental: as §1, §2, §3, §4, §5

T1 sequence (P68082 whole entry): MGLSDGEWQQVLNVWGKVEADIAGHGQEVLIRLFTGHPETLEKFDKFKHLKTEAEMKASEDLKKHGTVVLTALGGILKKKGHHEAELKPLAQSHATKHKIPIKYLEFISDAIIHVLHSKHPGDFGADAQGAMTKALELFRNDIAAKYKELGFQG
T2 sequence (P00921 whole entry): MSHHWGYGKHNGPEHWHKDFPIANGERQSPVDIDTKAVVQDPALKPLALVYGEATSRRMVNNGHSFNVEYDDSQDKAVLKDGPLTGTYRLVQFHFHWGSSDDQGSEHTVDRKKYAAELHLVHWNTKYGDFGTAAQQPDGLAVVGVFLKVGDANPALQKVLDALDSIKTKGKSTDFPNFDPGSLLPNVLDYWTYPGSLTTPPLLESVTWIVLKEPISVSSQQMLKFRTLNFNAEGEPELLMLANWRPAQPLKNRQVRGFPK
T3 sequence (P02787 20-698): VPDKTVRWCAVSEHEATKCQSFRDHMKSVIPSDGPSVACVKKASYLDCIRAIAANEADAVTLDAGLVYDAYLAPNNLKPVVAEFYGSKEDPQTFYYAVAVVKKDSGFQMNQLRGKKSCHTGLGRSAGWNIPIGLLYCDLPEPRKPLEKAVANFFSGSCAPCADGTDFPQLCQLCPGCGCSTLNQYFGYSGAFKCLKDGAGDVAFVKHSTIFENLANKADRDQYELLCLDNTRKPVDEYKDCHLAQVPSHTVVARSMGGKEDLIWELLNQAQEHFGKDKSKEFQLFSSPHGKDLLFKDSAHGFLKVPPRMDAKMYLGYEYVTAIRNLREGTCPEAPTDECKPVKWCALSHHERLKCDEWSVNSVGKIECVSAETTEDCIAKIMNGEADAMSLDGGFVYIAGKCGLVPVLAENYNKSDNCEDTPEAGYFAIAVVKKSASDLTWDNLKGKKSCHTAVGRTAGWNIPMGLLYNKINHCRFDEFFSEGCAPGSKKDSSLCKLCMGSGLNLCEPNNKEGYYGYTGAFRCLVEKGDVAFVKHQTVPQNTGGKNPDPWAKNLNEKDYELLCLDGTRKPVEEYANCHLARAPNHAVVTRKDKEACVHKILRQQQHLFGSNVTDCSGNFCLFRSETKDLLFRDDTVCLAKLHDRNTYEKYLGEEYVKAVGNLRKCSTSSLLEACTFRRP

CC(=O)N[C@H]1[C@H](O[C@H]2[C@@H](O)[C@@H](CO)O[C@H](O[C@@H]3[C@H](O)[C@@H](O)[C@H](O[C@H]4[C@H](O)[C@@H](O)C(O)O[C@@H]4CO)O[C@@H]3CO)[C@@H]2O)O[C@H](CO)[C@H](O)[C@@H]1O (stereo partly drawn) [Gb4, GalNAc β1-3 Galα1-4Galβ1-4Glc]
specific binding after ADH based protein clustering correction (GII.4 Saga P dimer; Gb4: any listed glycan concentration, HBGA B: 500 µM): no specific binding
Bound number of carbohydrates on Saga P dimer (GII.4 Saga P dimer; ref. protein ADH, glycan 100 µM): 0
Bound number of carbohydrates on Saga P dimer (GII.4 Saga P dimer; ref. protein ADH, glycan 200 µM): 0
Bound number of carbohydrates on Saga P dimer (GII.4 Saga P dimer; ref. protein ADH, glycan 300 µM): 0
Bound number of carbohydrates on Saga P dimer (GII.4 Saga P dimer; ref. protein ADH, glycan 400 µM): 0
Bound number of carbohydrates on Saga P dimer (GII.4 Saga P dimer; ref. protein ADH, glycan 500 µM): 0
Bound number of carbohydrates on Saga P dimer (GII.4 Saga P dimer; ref. protein CA, glycan 100 µM): 1
Bound number of carbohydrates on Saga P dimer (GII.4 Saga P dimer; ref. protein CA, glycan 200 µM): 1
Bound number of carbohydrates on Saga P dimer (GII.4 Saga P dimer; ref. protein CA, glycan 300 µM): 2
Bound number of carbohydrates on Saga P dimer (GII.4 Saga P dimer; ref. protein CA, glycan 400 µM): 2
Bound number of carbohydrates on Saga P dimer (GII.4 Saga P dimer; ref. protein CA, glycan 500 µM): 2
Bound number of carbohydrates on Saga P dimer (GII.4 Saga P dimer; ref. protein Cyto c, glycan 100 µM): 1
Bound number of carbohydrates on Saga P dimer (GII.4 Saga P dimer; ref. protein Cyto c, glycan 200 µM): 2
Bound number of carbohydrates on Saga P dimer (GII.4 Saga P dimer; ref. protein Cyto c, glycan 300 µM): 3
Bound number of carbohydrates on Saga P dimer (GII.4 Saga P dimer; ref. protein Cyto c, glycan 400 µM): 3
Bound number of carbohydrates on Saga P dimer (GII.4 Saga P dimer; ref. protein Cyto c, glycan 500 µM): 4
Bound number of carbohydrates on Saga P dimer (GII.4 Saga P dimer; ref. protein GFP, glycan 100 µM): 2
Bound number of carbohydrates on Saga P dimer (GII.4 Saga P dimer; ref. protein GFP, glycan 200 µM): 2
Bound number of carbohydrates on Saga P dimer (GII.4 Saga P dimer; ref. protein GFP, glycan 300 µM): 2
Bound number of carbohydrates on Saga P dimer (GII.4 Saga P dimer; ref. protein GFP, glycan 400 µM): 2
Bound number of carbohydrates on Saga P dimer (GII.4 Saga P dimer; ref. protein GFP, glycan 500 µM): 2
Bound number of carbohydrates on Saga P dimer (GII.4 Saga P dimer; ref. protein LDH, glycan 100 µM): 0
Bound number of carbohydrates on Saga P dimer (GII.4 Saga P dimer; ref. protein LDH, glycan 200 µM): 0
Bound number of carbohydrates on Saga P dimer (GII.4 Saga P dimer; ref. protein LDH, glycan 300 µM): 0
Bound number of carbohydrates on Saga P dimer (GII.4 Saga P dimer; ref. protein LDH, glycan 400 µM): 0
Bound number of carbohydrates on Saga P dimer (GII.4 Saga P dimer; ref. protein LDH, glycan 500 µM): 1
Bound number of carbohydrates on Saga P dimer (GII.4 Saga P dimer; ref. protein Myo, glycan 100 µM): 2
Bound number of carbohydrates on Saga P dimer (GII.4 Saga P dimer; ref. protein Myo, glycan 200 µM): 3
Bound number of carbohydrates on Saga P dimer (GII.4 Saga P dimer; ref. protein Myo, glycan 300 µM): 3
Bound number of carbohydrates on Saga P dimer (GII.4 Saga P dimer; ref. protein Myo, glycan 400 µM): 3
Bound number of carbohydrates on Saga P dimer (GII.4 Saga P dimer; ref. protein Myo, glycan 500 µM): 4
Bound number of carbohydrates on Saga P dimer (GII.4 Saga P dimer; ref. protein Ubq, glycan 100 µM): 2
Bound number of carbohydrates on Saga P dimer (GII.4 Saga P dimer; ref. protein Ubq, glycan 200 µM): 3
Bound number of carbohydrates on Saga P dimer (GII.4 Saga P dimer; ref. protein Ubq, glycan 300 µM): 4
Bound number of carbohydrates on Saga P dimer (GII.4 Saga P dimer; ref. protein Ubq, glycan 400 µM): 4
Bound number of carbohydrates on Saga P dimer (GII.4 Saga P dimer; ref. protein Ubq, glycan 500 µM): 4
Bound number of carbohydrates on Saga P dimer (GII.4 Saga P dimer; ref. protein apo-TFF, glycan 100 µM): 0
Bound number of carbohydrates on Saga P dimer (GII.4 Saga P dimer; ref. protein apo-TFF, glycan 200 µM): 0
Bound number of carbohydrates on Saga P dimer (GII.4 Saga P dimer; ref. protein apo-TFF, glycan 300 µM): 1
Bound number of carbohydrates on Saga P dimer (GII.4 Saga P dimer; ref. protein apo-TFF, glycan 400 µM): 1
Bound number of carbohydrates on Saga P dimer (GII.4 Saga P dimer; ref. protein apo-TFF, glycan 500 µM): 1
Glycan-Clustering Ratio R ([1]; 100 µM glycan): 0.14±0.02
Glycan-Clustering Ratio R ([1]; 200 µM glycan): 0.17±0.03
Glycan-Clustering Ratio R ([1]; 300 µM glycan): 0.20±0.03
Glycan-Clustering Ratio R ([1]; 400 µM glycan): 0.30±0.01
Glycan-Clustering Ratio R ([1]; 500 µM glycan): 0.37 ± 0.06
Glycan-Clustering Ratio R ([2]; 100 µM glycan): 0.21±0.01
Glycan-Clustering Ratio R ([2]; 200 µM glycan): 0.32±0.07
Glycan-Clustering Ratio R ([2]; 300 µM glycan): 0.50±0.00
Glycan-Clustering Ratio R ([2]; 400 µM glycan): 0.60±0.05
Glycan-Clustering Ratio R ([2]; 500 µM glycan): 0.75 ± 0.03
Glycan-Clustering Ratio R ([3]; 100 µM glycan): 0.36±0.05
Glycan-Clustering Ratio R ([3]; 200 µM glycan): 0.57±0.06
Glycan-Clustering Ratio R ([3]; 300 µM glycan): 0.63±0.02
Glycan-Clustering Ratio R ([3]; 400 µM glycan): 0.69±0.02
Glycan-Clustering Ratio R ([3]; 500 µM glycan): 0.80 ± 0.05
